Experimental data reported in BindingDB's records for doi:10.1016/j.ejmech.2021.113381 (University of Texas Medical Branch, 2021).
Counter-ions that a name gives are not always drawn.

Test: Inhibition of ASM (unknown origin)-mediated KRAS mislocalization from plasma membrane

Question: For `CC(NCCC(c1ccccc1)c1ccccc1)c1ccccc1` (stereo unspecified) [FENDILINE HYDROCHLORIDE], which IC50 is on record?
Answer: Its IC50 is 5.6 µM.
